Test results published in patent US20160024051A1, “SALTS AND SOLID FORMS OF ISOQUINOLINONES AND COMPOSITION COMPRISING AND METHODS OF USING THE SAME” (INFINITY PHARMACEUTICALS, INC., priority 2013, published 2016).

Tests used:
[1] = PK evaluation in CD-1 mouse; assay type: in vivo
Protocol: (§1) For example, Compound 1 bis-hydrogen sulfate monohydrate was evaluated in CD-1 mouse, Wistar rat, Cyno monkey, and Beagle dog. Cross species allometric scaling of CL (drug clearance) and Vss (volume at steady state) predicts low CL, high Vss and long T112 for Compound 1 in humans.

[2] = PK evaluation in Wistar rat; assay type: in vivo
Protocol: as §1

[3] = PK evaluation in Cyno monkey; assay type: in vivo
Protocol: as §1

[4] = PK evaluation in Beagle dog; assay type: in vivo
Protocol: as §1

[5] = Storage at 25° C./93% RH for 1 week, re-analysis by XRPD/HPLC; assay type: physicochemical; details: for stability on storage at 25° C./93% RH: 1 week
[6] = Gravimetric vapour sorption (GVS); assay type: physicochemical
Protocol: Sorption isotherms were obtained using a Hiden IGASorp moisture sorption analyser, controlled by CFRSorp software. The sample temperature was maintained at 25° C. by a Huber re-circulating water bath. The humidity was controlled by mixing streams of dry and wet nitrogen, with a total flow rate of 250 ml/min. The relative humidity (RH) was measured by a calibrated Vaisala RH probe (dynamic range of 0-95% RH), located near the sample. The weight change, (mass relaxation) of the sample as a function of % RH was constantly monitored by the microbalance (accuracy ±0.001 mg). Typically 10-20 mg of sample was placed in a tared mesh stainless steel basket under ambient conditions. The sample was loaded and unloaded at 40% RH and 25° C. (typical room conditions). A moisture sorption isotherm was performed as outlined below (2 scans giving 1 complete cycle). The standard isotherm was performed at 25° C. at 10% RH intervals over a 0-90% RH range.
The software uses a least squares minimisation procedure together with a model of the mass relaxation, to predict an asymptotic value. The measured mass relaxation value must be within 5% of that predicted by the software, before the next % RH value is selected. The minimum equilibration time was set to 1 hour and the maximum to 4 hours. The sample was recovered after completion of the isotherm and re-analysed by XRPD.

[7] = Thermodynamic aqueous solubility; assay type: physicochemical
[8] = Storage at 40° C./75% RH (elevated humidity) for 1 week, re-analysis by XRPD/HPLC
Protocol: The crystalline solids were filtered, dried at ambient conditions, and stored at 40° C./75% RH for 1 week and analyzed by ^1H NMR/IC.
(§2) Samples from the screen using amorphous free base Compound 1 were analysed by ^1H-NMR and DSC, and re-analysis by XRPD was also carried out after drying at 50° C./vacuum and storage at 40° C./75% RH (the same sample was dried and stored at elevated humidity).

[9] = Polymorphism study: maturation (temperature cycling RT to 50° C.) in solvents, XRPD; assay type: physicochemical; details: three days
Protocol: One of 21 solvents was added to each vial in a number of aliquots (up to 30 volumes), with shaking. All the samples were then placed under maturation between RT to 50° C. (4 hours at each temperature) for 3 days. After maturation the samples were analysed by XRPD. Clear solutions were cooled to −20° C. (freezer). If no precipitation occurred samples were evaporated at RT.
Samples were placed under maturation between RT-50° C. (4 hours cycle) for 3 days. After maturation the samples were analyzed by XRPD. Clear solutions were then cooled to −20° C. (freezer). If no precipitation occurred, samples were evaporated at RT.
The corresponding solvents and solvent mixtures were added in portions of (a total of) 5, 10, 20, and 30 volumes at 50° C., with shaking, aiming for clear solutions. After each addition, the vials were allowed to shake for 20 minutes, after which observations were made. Solutions were allowed to evaporate, whereas slurries were set for 8 hour temperature cycling maturation, between RT and 50° C., for 5 days.
The oils obtained by solvent evaporation were used for the maturation screen. Anhydrous solvents (5 volumes; 100 μL) were used in order to minimise the amount of water present. Any solutions were allowed to slowly evaporate, whereas slurries were set for 8 hour temperature cycling maturation, between RT and 50° C. […] These were matured for a further 24 hours before performing XRPD analysis.
The selected solvents and solvent mixtures (5 to 20 volumes) were added with stirring. Any solutions were allowed to slowly evaporate, whereas slurries were set for 8 hour temperature cycling maturation, between RT and 50° C., for 2 days.
Crystals were ground in order to analyse them by XRPD. Suspensions were set for temperature cycling for a total of five days after which time XRPD analysis was carried out.

[10] = Stability of Hydrate Form 2: maturation in water or acetic acid: water 1:3 at constant temperature; assay type: physicochemical; details: 40 hours maturation
Protocol: Both solids obtained from maturation at 25° C.

[11] = Drying at 50° C./vacuum, re-analysis by XRPD; assay type: physicochemical
Protocol: as §2

COc1cc(-c2cccc3cc([C@H](C)Nc4nc(N)ncc4C#N)n(-c4ccccc4)c(=O)c23)ccn1.O.O=S(=O)(O)O.O=S(=O)(O)O
AUClast ([1]; IV, 5 mg/kg): 1012 ng·h/mL
Cl ([1]; IV, 5 mg/kg): 82 mL/min/kg
Cmax ([1]; IV, 5 mg/kg): 1417 ng/mL
T1/2 ([1]; IV, 5 mg/kg): 0.6 h
Vss ([1]; IV, 5 mg/kg): 2.3 L/kg
AUClast ([1]; PO, 10 mg/kg): 856 ng·h/mL
Cmax ([1]; PO, 10 mg/kg): 647 ng/mL
Foral ([1]; PO, 10 mg/kg): 45%
T1/2 ([1]; PO, 10 mg/kg): 1.7 h
Tmax ([1]; PO, 10 mg/kg): 0.25 h
AUClast ([2]; IV, 2 mg/kg): 2061 ng·h/mL
Cl ([2]; IV, 2 mg/kg): 17 mL/min/kg
Cmax ([2]; IV, 2 mg/kg): 799 ng/mL
T1/2 ([2]; IV, 2 mg/kg): 2.3 h
Vss ([2]; IV, 2 mg/kg): 2.4 L/kg
AUClast ([2]; PO, 10 mg/kg): 5968 ng·h/mL
Cmax ([2]; PO, 10 mg/kg): 787 ng/mL
Foral ([2]; PO, 10 mg/kg): 58%
T1/2 ([2]; PO, 10 mg/kg): 3.3 h
Tmax ([2]; PO, 10 mg/kg): 1.3 h
AUClast ([3]; IV, 1 mg/kg): 2534 ng·h/mL
Cl ([3]; IV, 1 mg/kg): 6.5 mL/min/kg
Cmax ([3]; IV, 1 mg/kg): 581 ng/mL
T1/2 ([3]; IV, 1 mg/kg): 4.1 h
Vss ([3]; IV, 1 mg/kg): 1.6 L/kg
AUClast ([3]; PO, 5 mg/kg): 12790 ng·h/mL
Cmax ([3]; PO, 5 mg/kg): 2365 ng/mL
Foral ([3]; PO, 5 mg/kg): 100%
T1/2 ([3]; PO, 5 mg/kg): 4.0 h
Tmax ([3]; PO, 5 mg/kg): 2 h
AUClast ([4]; IV, 1 mg/kg): 4746 ng·h/mL
Cl ([4]; IV, 1 mg/kg): 2.5 mL/min/kg
Cmax ([4]; IV, 1 mg/kg): 424 ng/mL
T1/2 ([4]; IV, 1 mg/kg): 14.6 h
Vss ([4]; IV, 1 mg/kg): 2.9 L/kg
AUClast ([4]; PO, 5 mg/kg): 17626 ng·h/mL
Cmax ([4]; PO, 5 mg/kg): 1830 ng/mL
Foral ([4]; PO, 5 mg/kg): 74%
T1/2 ([4]; PO, 5 mg/kg): 8.0 h
Tmax ([4]; PO, 5 mg/kg): 2.3 h

COc1cc(-c2cccc3cc([C@H](C)Nc4nc(N)ncc4C#N)n(-c4ccccc4)c(=O)c23)ccn1
Storage 25° C./93% RH for 1 week: HPLC Purity ([5]; salts scaled-up at 0.5 gram): HPLC Purity: Unchanged
Storage 25° C./93% RH for 1 week: XRPD (D8) ([5]; salts scaled-up at 0.5 gram): XRPD (D8): Unchanged
XRPD post GVS (C2) [6]: Unchanged
GVS Single cycle ([6]; hygroscopicity in words, 25° C., listed as 1-2-Ethanedisulfonic acid): Moderately hygroscopic
XRPD (C2) post Aqueous solubility ([7]; residual solid): Low cryst. 1,2-ethanedisulfonic
Thermodynamic aqueous solubility ([7]; salts scaled-up at 0.5 gram, listed as 1-2-Ethanedisulfonic acid): 6200 µg/mL
Storage 40° C./75% RH for 1 week: HPLC Purity ([8]; salts scaled-up at 0.5 gram): HPLC Purity: Unchanged
Storage 40° C./75% RH for 1 week: XRPD (D8) ([8]; salts scaled-up at 0.5 gram): XRPD (D8): Unchanged

CC(=O)O.COc1cc(-c2cccc3cc([C@H](C)Nc4nc(N)ncc4C#N)n(-c4ccccc4)c(=O)c23)ccn1.COc1cc(-c2cccc3cc([C@H](C)Nc4nc(N)ncc4C#N)n(-c4ccccc4)c(=O)c23)ccn1 [Batch 2 of Form 6]
Stability at 25° C./93% RH ([5]; after 1 week, XRPD): Very slight changes
Stability at 40° C./75% RH ([8]; after 1 week, XRPD): Very slight changes

COc1cc(-c2cccc3cc([C@H](C)Nc4nc(N)ncc4C#N)n(-c4ccccc4)c(=O)c23)ccn1 [Form 1 of the free base of Compound 1]
stability on storage at 25° C./93% RH [5]: converts to Form 3 of the free base of Compound 1
stability on storage at 25° C./93% RH ([5]; listed as Free base Form 1): conversion to Form 3
Stability at 25° C./93% RH ([5]; form): Conversion to Form 3 (FIG. 31)
GVS: moisture on loading [6]: 0.7 % w/w
GVS behaviour (hydration / desolvation) ([6]; listed as Free base Form 1): hydrates to a higher hydrate above 80% RH
GVS: uptake between 80-90% RH ([6]; with hysteresis on desorption): 4.0 % w/w
Thermodynamic aqueous solubility ([7]; at pH 6.85): 4 µg/mL
XRPD form after maturation in acetic acid: water 1:1 ([9]; listed as hydrate Form 1 of free base Compound 1): Form 6
Stability at 40° C./75% RH ([8]; 1 week, form): No changes in form after 1 week

COc1cc(-c2cccc3cc([C@H](C)Nc4nc(N)ncc4C#N)n(-c4ccccc4)c(=O)c23)ccn1.O [Form 2 of free base of Compound 1]
XRPD ([10]; Acetic acid:water 1:3, 25° C.): Hydrate Form 2
XRPD ([10]; Water, 25° C.): Hydrate Form 2
XRPD ([10]; Water, 90° C.): Hydrate Form 2

COc1cc(-c2cccc3cc([C@H](C)Nc4nc(N)ncc4C#N)n(-c4ccccc4)c(=O)c23)ccn1 [Form 4 of the free base of Compound 1]
GVS behaviour (hydration / desolvation) ([6]; text statements, listed as Form 4): hydrates above 80% RH, but reversibly dehydrates back at 40% RH
XRPD after drying at 50° C./vacuum ([11]; screening sample from H2O): No changes
XRPD after Storage at 40° C./75% RH ([8]; screening sample from H2O, after drying): No changes

COc1cc(-c2cccc3cc([C@H](C)Nc4nc(N)ncc4C#N)n(-c4ccccc4)c(=O)c23)ccn1 [Form 5 of the free base of Compound 1]
XRPD after drying at 50° C./vacuum ([11]; screening sample from 2-MeTHF): No changes
XRPD after drying at 50° C./vacuum ([11]; screening sample from Acetone): No changes
XRPD after drying at 50° C./vacuum ([11]; screening sample from Acetonitrile): No changes
XRPD after drying at 50° C./vacuum ([11]; screening sample from DCM): No changes
XRPD after drying at 50° C./vacuum ([11]; screening sample from DCM:MeOH 1:1): No changes
XRPD after drying at 50° C./vacuum ([11]; screening sample from DME): No changes
XRPD after drying at 50° C./vacuum ([11]; screening sample from EtOAc): No changes
XRPD after drying at 50° C./vacuum ([11]; screening sample from EtOH): No changes
XRPD after drying at 50° C./vacuum ([11]; screening sample from EtOH/5% water): No changes
XRPD after drying at 50° C./vacuum ([11]; screening sample from IPA): No changes
XRPD after drying at 50° C./vacuum ([11]; screening sample from MIBK): No changes
XRPD after drying at 50° C./vacuum ([11]; screening sample from MeCN/5% water): No changes
XRPD after drying at 50° C./vacuum ([11]; screening sample from MeOH): No changes
XRPD after drying at 50° C./vacuum ([11]; screening sample from TBME): No changes
XRPD after drying at 50° C./vacuum ([11]; screening sample from THF): No changes
XRPD after drying at 50° C./vacuum ([11]; screening sample from THF/5% water): No changes
XRPD after Storage at 40° C./75% RH ([8]; screening sample from 2-MeTHF, after drying): No changes
XRPD after Storage at 40° C./75% RH ([8]; screening sample from Acetone, after drying): No changes
XRPD after Storage at 40° C./75% RH ([8]; screening sample from Acetonitrile, after drying): No changes; NMR
XRPD after Storage at 40° C./75% RH ([8]; screening sample from DCM, after drying): No changes
XRPD after Storage at 40° C./75% RH ([8]; screening sample from DCM:MeOH 1:1, after drying): No changes
XRPD after Storage at 40° C./75% RH ([8]; screening sample from DME, after drying): No changes
XRPD after Storage at 40° C./75% RH ([8]; screening sample from EtOAc, after drying): No changes
XRPD after Storage at 40° C./75% RH ([8]; screening sample from EtOH, after drying): No changes
XRPD after Storage at 40° C./75% RH ([8]; screening sample from EtOH/5% water, after drying): No changes
XRPD after Storage at 40° C./75% RH ([8]; screening sample from IPA, after drying): No changes
XRPD after Storage at 40° C./75% RH ([8]; screening sample from MIBK, after drying): No changes
XRPD after Storage at 40° C./75% RH ([8]; screening sample from MeCN/5% water, after drying): No changes
XRPD after Storage at 40° C./75% RH ([8]; screening sample from MeOH, after drying): No changes
XRPD after Storage at 40° C./75% RH ([8]; screening sample from TBME, after drying): No changes
XRPD after Storage at 40° C./75% RH ([8]; screening sample from THF, after drying): No changes; NMR
XRPD after Storage at 40° C./75% RH ([8]; screening sample from THF/5% water, after drying): No changes

COc1cc(-c2cccc3cc([C@H](C)Nc4nc(N)ncc4C#N)n(-c4ccccc4)c(=O)c23)ccn1 [amorphous free base of Compound 1]
Stability at 25° C./93% RH ([5]; after 1 week, XRPD): No changes after 1 week
XRPD form after maturation in acetic acid: water 1:1 ([9]; listed as amorphous material): Form 6
Stability at 40° C./75% RH ([8]; after 1 week, XRPD): No changes after 1 week
solid form after storage at elevated humidity ([8]; elevated humidity conditions, not specified in the sentence): No crystallisation
